# Test results published in patent publication US20240150279A1, “C PRIME AGENTS FOR TREATING METABOLIC DISORDERS” (The University of Toledo, priority 2021, published 2024).
# Tested on: PDX1-BIRC5-Survivin axis
structure (smiles),measurement,value
"CCC(C)(C)C(=O)OC1CC(C)C=C2C=CC(C)C(CCC(O)CC(O)CC(=O)NO)C21 (stereo not shown) [Sim-CONHOH, Simvastatin-NHOH]",activity in the PDX1-BIRC5-Survivin bioassays,active
